Reference: patent US7691901B2, “Carotenoid analogs or derivatives for the inhibition and amelioration of inflammation” (Cardax Pharmaceuticals Inc., priority 2004, dated 2010)

Test system: lipid peroxidation products
Test: Thioglycollate/Zymosan-induced peritonitis model: lipid oxidation products in peritoneal lavage by electrospray ionization tandem mass spectrometry
Type: in vivo, mice
Protocol: Thioglycollate/Zymosan—Induced Peritonitis Model: Wild-type mice were administered either 500 mg/kg body weight of disodium disuccinate astaxanthin (ddAst/Cardax™) in an oil emulsion vehicle, or normal saline (NS) as a negative control, by oral gavage at 24 hours intervals beginning 7 days prior to the induction of peritonitis. Peritonitis was induced experimentally as follows: mice were injected intraperitoneally with 1 ml of 4% by weight thioglycollate (Tg) broth, to induce the recruitment of proinflammatory cells to the peritoneum. Either 16 hours or 72 hours after recruitment, approximately half of the mice were injected intraperitoneally with 250 mg/kg body weight of zymosan (Z) for a further 4 hours. The mice not receiving zymosan underwent no further treatment. Peritoneal lavage was performed in control animals or animals treated with (ddAst) 16 hours post Tg injection, or 20 h following the combination of both Tg injection (16 hours) followed by Z injection (4 hours), as indicated (Tg/Z). Peritoneal lavages were performed with phosphate-buffered saline containing antioxidant (0.1 mM butylated hydroxytoluene (BHT)) and 2 mM of the metal chelator diethylenetriamine pentaacetic acid (DTPA) according to established practices in the art. The lavage suspensions were transferred to screw-capped tubes under an argon atmosphere, and immediately centrifuged at 1000 rpm in a table top microcentrifuge for 10 min at 4° C. to remove whole cells and debris. All analyses of lipid peroxidation products was performed on cell-free lavage supernatants. Cell pellets were resuspended in phosphate-buffered saline containing 0.1 mM BHT and 0.1 mM DTPA, and differential cell counts (macrophages, monocytes, eosinophils, lymphocytes, neutrophils, and erythrocytes) were performed on cytospun preparations of isolated cells according to established procedures in the art.
Electrospray ionization tandem mass spectrometry was used to simultaneously quantify individual molecular species of HETEs, HPETEs, the prostaglandin PGF2α, F2-isoprostanoids, hydroxy- and hydroperoxy-octadecadienoic acids (H(P)ODEs), and their precursors, arachidonic acid (AA) and linoleic acid (LA). Additionally, the molar ratios of o-tyrosine (oY/F). were measured.

[1] = 72 Hour Thioglycollate/4 Hour Zymosan, 500 mg/kg oral gavage, P-VALUE 0.772 NP
[2] = 72 Hour Thioglycollate/4 Hour Zymosan, 500 mg/kg oral gavage, P-VALUE 0.862 NP
[3] = 72 Hour Thioglycollate/4 Hour Zymosan
[4] = 72 Hour Thioglycollate, 500 mg/kg oral gavage, P-VALUE 0.117
[5] = 72 Hour Thioglycollate, 500 mg/kg oral gavage, P-VALUE 0.275
[6] = 72 Hour Thioglycollate, 500 mg/kg oral gavage, P-VALUE 0.325 NP
[7] = 72 Hour Thioglycollate, 500 mg/kg oral gavage, P-VALUE 0.349
[8] = 72 Hour Thioglycollate, 500 mg/kg oral gavage, P-VALUE 0.393
[9] = 72 Hour Thioglycollate, 500 mg/kg oral gavage, P-VALUE 0.512
[10] = 72 Hour Thioglycollate, 500 mg/kg oral gavage, P-VALUE 0.524 NP
[11] = 72 Hour Thioglycollate, 500 mg/kg oral gavage, P-VALUE 0.542
[12] = 72 Hour Thioglycollate, 500 mg/kg oral gavage, P-VALUE 0.603 NP
[13] = 72 Hour Thioglycollate, 500 mg/kg oral gavage, P-VALUE 0.726
[14] = 72 Hour Thioglycollate, 500 mg/kg oral gavage, P-VALUE 0.741
[15] = 72 Hour Thioglycollate, 500 mg/kg oral gavage, P-VALUE 0.793
[16] = 72 Hour Thioglycollate, 500 mg/kg oral gavage, P-VALUE 0.862 NP
[17] = 72 Hour Thioglycollate, 500 mg/kg oral gavage, P-VALUE 0.968
[18] = 16 hours Tg/4 hour Z, 500 mg/kg oral gavage
[19] = 16 hours Tg, 500 mg/kg oral gavage
[20] = 72 hours Tg/4 hour Z, 500 mg/kg oral gavage
[21] = Baseline, 500 mg/kg oral gavage, P-VALUE 0.081 NP
[22] = Baseline, 500 mg/kg oral gavage, P-VALUE 0.158 NP
[23] = Baseline, 500 mg/kg oral gavage, P-VALUE 0.271
[24] = Baseline, 500 mg/kg oral gavage, P-VALUE 0.290
[25] = Baseline, 500 mg/kg oral gavage, P-VALUE 0.298 NP
[26] = Baseline, 500 mg/kg oral gavage, P-VALUE 0.302
[27] = Baseline, 500 mg/kg oral gavage, P-VALUE 0.391
[28] = Baseline, 500 mg/kg oral gavage, P-VALUE 0.418
[29] = Baseline, 500 mg/kg oral gavage, P-VALUE 0.471 NP
[30] = Baseline, 500 mg/kg oral gavage, P-VALUE 0.810 NP
[31] = Baseline, 500 mg/kg oral gavage, P-VALUE 0.843
[32] = Baseline, 500 mg/kg oral gavage, P-VALUE 0.920
[33] = Baseline, 500 mg/kg oral gavage, P-VALUE 1.000 NP

Structure (SMILES): CC1=C(/C=C/C(C)=C/C=C/C(C)=C/C=C/C=C(C)/C=C/C=C(C)/C=C/C2=C(C)C(=O)C(OC(=O)CCC(=O)O)CC2(C)C)C(C)(C)CC(OC(=O)CCC(=O)O)C1=O (stereo not shown) [Cardax, disodium disuccinate astaxanthin]
- 9-HODE MEAN [1]: 4.747 pmol
- 9-HODE MEDIAN [1]: 3.683 pmol
- 11-HETE MEAN [2]: 0.837 pmol
- 11-HETE MEDIAN [2]: 0.703 pmol
- 5-oxo-ETE (pmol), MEAN [3]: 0.148 pmol
- 5-oxo-ETE (ratio), MEAN [3]: 0.063 ratio
- 8-iso-F2a (pmol), MEAN [3]: 0.057 pmol
- 8-iso-F2a/AA (ratio), MEAN [3]: 0.017 ratio
- 5-oxo-ETE (pmol), MEDIAN [3]: 0.116 pmol
- 5-oxo-ETE (ratio), MEDIAN [3]: 0.048 ratio
- 8-iso-F2a (pmol), MEDIAN [3]: 0.037 pmol
- 8-iso-F2a/AA (ratio), MEDIAN [3]: 0.011 ratio
- 9-HETE MEAN [4]: 0.274 pmol
- 9-HETE MEDIAN [4]: 0.299 pmol
- 9-HODE/LA (ratio) MEAN [5]: 0.180
- 9-HODE/LA (ratio) MEDIAN [5]: 0.109
- 5-HETE MEAN [6]: 0.129 pmol
- 5-HETE MEDIAN [6]: 0.082 pmol
- 9-HODE MEAN [7]: 1.831 pmol
- 9-HODE MEDIAN [7]: 1.585 pmol
- 13-HODE MEAN [8]: 5.552 pmol
- 13-HODE MEDIAN [8]: 5.520 pmol
- 11-HETE/AA (ratio) MEAN [9]: 0.151
- 11-HETE/AA (ratio) MEDIAN [9]: 0.132
- Arachidonic Acid MEAN [10]: 836.27 pmol
- Arachidonic Acid MEDIAN [10]: 758.43 pmol
- PGF2a/AA (ratio) MEAN [11]: 0.030
- PGF2a/AA (ratio) MEDIAN [11]: 0.033
- Linoleic Acid MEAN [12]: 14242 pmol
- Linoleic Acid MEDIAN [12]: 10076 pmol
- Prostaglandin F2α (PGF2α) MEAN [13]: 0.021 pmol
- Prostaglandin F2α (PGF2α) MEDIAN [13]: 0.018 pmol
- 11-HETE MEAN [14]: 0.112 pmol
- 11-HETE MEDIAN [14]: 0.100 pmol
- 5-HETE/AA (ratio) MEAN [15]: 0.170
- 5-HETE/AA (ratio) MEDIAN [15]: 0.082
- 9-HETE/AA (ratio) MEAN [16]: 0.348
- 9-HETE/AA (ratio) MEDIAN [16]: 0.241
- 13-HODE/AA (ratio) MEAN [17]: 0.504
- 13-HODE/AA (ratio) MEDIAN [17]: 0.363
- 5-oxo-ETE (pmol), MEAN (72 Hour Thioglycollate): 0.026 pmol
- 5-oxo-ETE (ratio), MEAN (72 Hour Thioglycollate): 0.021 ratio
- 8-iso-F2a (pmol), MEAN (72 Hour Thioglycollate): 0.010 pmol
- 8-iso-F2a/AA (ratio), MEAN (72 Hour Thioglycollate): 0.016 ratio
- 5-oxo-ETE (pmol), MEDIAN (72 Hour Thioglycollate): 0.000 pmol
- 5-oxo-ETE (ratio), MEDIAN (72 Hour Thioglycollate): 0.000 ratio
- 8-iso-F2a (pmol), MEDIAN (72 Hour Thioglycollate): 0.000 pmol
- 8-iso-F2a/AA (ratio), MEDIAN (72 Hour Thioglycollate): 0.000 ratio
- 5-oxo-EET (pmol) compared to NS (72 Tg/4 hour Z, 500 mg/kg oral gavage): significant decrease
- 8-iso-F2α (pmol) compared to NS [18]: significant decrease
- 8-iso-F2α/AA ratio compared to NS [18]: significant decrease
- AA (pmol) compared to NS [19]: significantly higher
- LA (pmol) compared to NS [19]: significantly higher
- 5-HETE/AA ratio compared to NS [20]: significant decrease
- 5-oxo-EET (ratio) compared to NS [20]: significant decrease
- 9-HETE/AA ratio compared to NS [20]: significant decrease
- 9-HODE/LA (ratio) compared to NS [20]: significant decrease
- 11-HETE/AA ratio compared to NS [20]: significant decrease
- AA (pmol) compared to NS [20]: significantly higher
- LA (pmol) compared to NS [20]: significantly higher
- PGF2α/AA ratio compared to NS [20]: significant decrease
- PGF2a/AA (ratio) MEAN [21]: 0.033
- PGF2a/AA (ratio) MEDIAN [21]: 0.000
- Prostaglandin F2α (PGF2α) MEAN [22]: 0.036 pmol
- Prostaglandin F2α (PGF2α) MEDIAN [22]: 0.000 pmol
- 13-HODE MEAN [23]: 26.618 pmol
- 13-HODE MEDIAN [23]: 23.554 pmol
- 11-HETE/AA (ratio) MEAN [24]: 0.219
- 11-HETE/AA (ratio) MEDIAN [24]: 0.218
- 9-HODE/LA (ratio) MEAN [25]: 0.212
- 9-HODE/LA (ratio) MEDIAN [25]: 0.168
- 5-HETE/AA (ratio) MEAN [26]: 0.129
- 5-HETE/AA (ratio) MEDIAN [26]: 0.145
- 13-HODE/AA (ratio) MEAN [27]: 2.976
- 13-HODE/AA (ratio) MEDIAN [27]: 2.848
- 9-HETE/AA (ratio) MEAN [28]: 0.879
- 9-HETE/AA (ratio) MEDIAN [28]: 0.887
- 5-HETE MEAN [29]: 0.096 pmol
- 5-HETE MEDIAN [29]: 0.047 pmol
- 11-HETE MEAN [29]: 0.121 pmol
- 11-HETE MEDIAN [29]: 0.073 pmol
- 9-HETE MEAN [30]: 0.510 pmol
- 9-HETE MEDIAN [30]: 0.272 pmol
- Linoleic Acid MEAN [31]: 8239.5 pmol
- Linoleic Acid MEDIAN [31]: 5875.6 pmol
- 9-HODE MEAN [32]: 1.791 pmol
- 9-HODE MEDIAN [32]: 1.579 pmol
- Arachidonic Acid MEAN [33]: 587.46 pmol
- Arachidonic Acid MEDIAN [33]: 323.65 pmol
- 5-oxo-ETE (pmol), MEAN (Baseline): 0.020 pmol
- 5-oxo-ETE (ratio), MEAN (Baseline): 0.033 ratio
- 8-iso-F2a (pmol), MEAN (Baseline): 0.156 pmol
- 8-iso-F2a/AA (ratio), MEAN (Baseline): 0.307 ratio
- 5-oxo-ETE (pmol), MEDIAN (Baseline): 0.000 pmol
- 5-oxo-ETE (ratio), MEDIAN (Baseline): 0.000 ratio
- 8-iso-F2a (pmol), MEDIAN (Baseline): 0.175 pmol
- 8-iso-F2a/AA (ratio), MEDIAN (Baseline): 0.266 ratio
